Where “and” joins values, the source holds several entries; their conditions need not be identical. Identical values can stand only once.
System: mice
Assay: Warm renal ischemia/reperfusion repeat study Step 2, 25 minutes ischemia (Example 3)
Assay type: in vivo
Details: for MDA level as an index of lipid peroxidation / uremia (urea) / MPO activity as an index of neutrophil accumulation / creatininemia (creatinine): individual data and Mean ± SEM, n=6
Experimental: Nine Experimental groups were used in Step 2: • 1) Sham-operated mice sacrificed 1 day after surgery, n=6, • 2) PBS-vehicle-treated mice 15 minutes before ischemia/1 day reperfusion, n=6, • 3) Isotype control antibody 10 mg/kg-treated mice 15 minutes before 25 minutes ischemia/1 day reperfusion, n=6 (The isotype control antibody is mouse IgG1 isotype control purchased from RnD systems (catalogue number MAB002), this isotype control antibody having binding specificity for Keyhole Limpet Hemocyanin (KLH) antigen), • 4) OPN301 anti-TLR2 monoclonal antibody 10 mg/kg-treated mice 15 minutes before 25 minutes ischemia/1 day reperfusion, n=6, • 5) Pargyline 6 mg/kg-treated mice 15 minutes before 25 minutes ischemia/1 day reperfusion, n=6, • 6) PBS-vehicle-treated mice 15 minutes before 25 min ischemia/5 day reperfusion, n=6, • 7) Isotype control antibody (RnD Systems catalogue Number MAB002) 10 mg/kg-treated mice 15 minutes before 25 minutes ischemia/5 day reperfusion, n=6, • 8) OPN301 anti-TLR2 monoclonal antibody 10 mg/kg-treated mice 15 minutes before 25 minutes ischemia/5 day reperfusion, n=6, • 9) Pargyline 6 mg/kg-treated mice 15 minutes before 25 minutes ischemia/5 day reperfusion, n=6, Experimental Warm Renal Ischemia/Reperfusion (Step 1 and 2)
Briefly, mice were anesthetized with 10 μl/g of a mix of 2.5 ml ketamine (Ketalar 50 mg/mL, Centravet; Lapalisse, France), 0.5 ml xylazine (Rompun 2.5%, Centravet; Lapalisse, France), and 7 mL NaCl 0.9% (Centravet; Lapalisse, France). During surgery, animals were set on a 35° C. hotplate.
After a 2 millimetre incision was made at the right jugular level, jugular vein was exposed for a 1 minute-intravenous injection (insulin syringe; VWR, Fontenay-sous-Bois, France) of 70 μl of the considered treatment then closed after haemostasis (5/0 Ethicrin thread, Ethicon; Auneau, France). In Step 1, no jugular injection was performed.
Three centimetre midline incisions were made to abdominal cutaneous followed by muscular incisions were performed; renal pedicles were exposed and clamped for 25 minutes using microaneurysm clamps (AREX; Palaiseau, France). At the time of clamp installation and removal, kidneys were inspected for blood flow arrest and restoration, respectively. During renal ischemia duration, the abdomen was wrapped up to avoid loss of heat and be kept in relative intra-abdominal pressure. At the time of abdomen closing in 2 layers (5/0 Ethicrin thread, Ethicon; Auneau, France), mice were supplemented with 1 mL sterile NaCl (sodium chloride) 0.9% to maintain fluid balance and volume status. Finally, all mice received an intramuscular injection of 10 mg/kg profenid 50 mg/mL (Centravet; Lapalisse, France) for analgesic purpose then allowed to recover from surgery for 12 hours at 32° C. in a ventilated stove. Food and water were given ad libitum. Sham-operated mice underwent the same procedure without clamping.
At the end of the protocol, mice were sacrificed by lethal injection of pentobarbital (100 μL/10 g, Ceva Sante Animale; Libourne, France) 1 and 5 days after surgery.
Experimental methodology such as urea, creatinine, MPO and MDA as described in Example 2.
The results were given as mean values±standard error of the mean (SEM). A one-way ANOVA was used for comparison of within-group difference followed by a Newman-Keuls test for comparison of all pairs of columns (GraphPad Prism, San Diego, USA). A p<0.05 was accepted for statistical significance.

## C#CCN(C)Cc1ccccc1 [Pargyline]
1 day after 25 minute ischemia
  effect on renal function impairment induced by ischemic injury, in words: without effects
Day 1 after 25 minute ischemia, PBS-vehicle 0.153 ± 0.014
  MDA level as an index of lipid peroxidation: 0.285 nmol/mg proteins and 0.163 nmol/mg proteins and 0.212 nmol/mg proteins and 0.242 nmol/mg proteins and 0.249 nmol/mg proteins and 0.202 nmol/mg proteins
Day 1 after 25 minute ischemia, PBS-vehicle 0.153 ± 0.014, mean
  MDA level as an index of lipid peroxidation: 0.225 ± 0.017 nmol/mg proteins
Day 1 after 25 minute ischemia, PBS-vehicle 31.05 ± 5.70
  uremia (urea): 47.99 mmol/L and 48.92 mmol/L and 40.01 mmol/L and 27.83 mmol/L and 19.35 mmol/L and 18.22 mmol/L
Day 1 after 25 minute ischemia, PBS-vehicle 31.05 ± 5.70, listed as pargyline
  uremia (urea): 33.72 ± 5.64 mmol/L
Day 1 after 25 minute ischemia, PBS-vehicle 31.05 ± 5.70, mean
  uremia (urea): 33.72 ± 5.64 mmol/L
Day 1 after 25 minute ischemia, PBS-vehicle 80.45 ± 8.66
  MPO activity as an index of neutrophil accumulation: 57.37±5.78 U MPO/mg protein and 47.9 U MPO/mg protein and 52.7 U MPO/mg protein and 68.7 U MPO/mg protein and 80.7 U MPO/mg protein and 48.8 U MPO/mg protein and 45.4 U MPO/mg protein
Day 1 after 25 minute ischemia, PBS-vehicle 99.97 ± 25.64
  creatininemia (creatinine): 185.9 µmol/L and 150.7 µmol/L and 134.1 µmol/L and 77.6 µmol/L and 53.3 µmol/L and 26.6 µmol/L
Day 1 after 25 minute ischemia, PBS-vehicle 99.97 ± 25.64, listed as pargyline
  creatininemia (creatinine): 104.7 ± 25.20 µmol/L
Day 1 after 25 minute ischemia, PBS-vehicle 99.97 ± 25.64, mean
  creatininemia (creatinine): 104.7 ± 25.20 µmol/L
Day 5 after 25 minute ischemia, PBS-vehicle 0.188 ± 0.019
  MDA level as an index of lipid peroxidation: 0.290 nmol/mg proteins and 0.231 nmol/mg proteins and 0.218 nmol/mg proteins and 0.261 nmol/mg proteins and 0.234 nmol/mg proteins and 0.299 nmol/mg proteins
Day 5 after 25 minute ischemia, PBS-vehicle 0.188 ± 0.019, mean
  MDA level as an index of lipid peroxidation: 0.255 ± 0.014 nmol/mg proteins
Day 5 after 25 minute ischemia, PBS-vehicle 8.78 ± 0.72
  uremia (urea): 7.63 mmol/L and 9.48 mmol/L and 7.37 mmol/L and 7.53 mmol/L and 8.78 mmol/L and 7.29 mmol/L
Day 5 after 25 minute ischemia, PBS-vehicle 8.78 ± 0.72, mean
  uremia (urea): 8.01 ± 0.37 mmol/L
Day 5 after 25 minute ischemia, PBS-vehicle 21.97 ± 1.84
  creatininemia (creatinine): 16 μmol/L and 27.2 μmol/L and 30.7 μmol/L and 19.2 μmol/L and 22.9 μmol/L (2×)
Day 5 after 25 minute ischemia, PBS-vehicle 21.97 ± 1.84, mean
  creatininemia (creatinine): 23.15 ± 2.16 µmol/L
Day 5 after 25 minute ischemia, PBS-vehicle 54.95 ± 0.62
  MPO activity as an index of neutrophil accumulation: 44.4 U MPO/mg protein and 49.2 U MPO/mg protein and 47.6 U MPO/mg protein and 42.2 U MPO/mg protein and 46.3 U MPO/mg protein and 49.6 U MPO/mg protein
Day 5 after 25 minute ischemia, PBS-vehicle 54.95 ± 0.62, mean
  MPO activity as an index of neutrophil accumulation: 46.55 ± 1.17 U MPO/mg protein
